From patent US9988375B2, “Inhibitors of lysine gingipain” (priority 2014, dated 2018) come the findings set out here.

Each structure is given as a SMILES string. “Also recorded” adds a separate entry of the source.

One test addresses lysine gingipain (Kgp) (Porphyromonas gingivalis (strain ATCC 33277 / DSM 20709 / CIP 103683 / JCM 12257 / NCTC 11834 / 2561), UniProt B2RLK2). Kind of test: Lysine gingipain (Kgp) fluorogenic inhibition assay. The test is classed as biochemical. The conditions noted are these: 0.1 nM Kgp, 10 uM Z-His-Glu-Lys-MCA, 90 minutes, 37° C., pH 7.5; read-out: Kgp IC50 average. The method, then:
The capacities of compounds of the present invention to inhibit the activity of lysine gingipain were measured in a fluorogenic assay similar to those described in Barret Biochemical Journal. 1980, 187(3), 909. The specific assay conditions were as follows. Buffer: pH=7.5, 100 mM Tris-HCl, 75 mM NaCl, 2.5 mM CaCl2, 10 mM cysteine, 1% DMSO after all additions. Protein: 0.1 nM Kgp, isolated from culture of Porphyromonas gingivalis, as described in Pike et al. J. Biol. Chem. 1994, 269(1), 406, and Potempa and Nguyen. Current Protocols in Protein Scienc. 2007, 21.20.1-21.20.27. Fluorogenic substrate: 10 uM Z-His-Glu-Lys-MCA. Time=90 minutes. Temperature=37° C. Each compound: 10 concentrations, starting at either 100 uM or 100 nM, with lower concentrations generated by serial 3-fold dilutions. By testing a range of concentrations for each compound, the concentration required to inhibit the activity of lysine gingipain by 50% (the “IC50”) was determined. Under the described assay conditions, signal-to-noise was excellent, and Z factor was greater than 0.6.
The inhibitory of activity of compounds described herein was tested against Kgp, RgpB, and trypsin.
`NCCCC[C@H](NC(=O)C1CCCCO1)C(=O)c1nc2ccccc2s1` (single isomer, unassigned) [Compound 26]: the IC50 (commonly the concentration that inhibits the measured activity by half) was 0.025 to 0.05 µM.

On to `NCCCC[C@H](NC(=O)c1nccs1)C(=O)c1nc2ccccc2s1` [Compound 39, N-[(1S)-5-amino-1-(1,3-benzothiazole-2-carbonyl)pentyl]thiazole-2-carboxamide], for which the IC50 lay within 0.05 to 0.1 µM.

As for `NCCCC[C@H](NC(=O)C1CCCOC1)C(=O)c1nc2ccccc2s1` (single isomer, unassigned) [Compound 18], the IC50 fell in the range of 0.01 to 0.025 µM.

With `CC(=O)N1CCC[C@@H](C(=O)N[C@@H](CCCCN)C(=O)c2nc3ccccc3s2)C1` [Compound 9, (3R)-1-acetyl-N-[(1S)-5-amino-1-(1,3-benzothiazole-2-carbonyl)pentyl]piperidine-3-carboxamide], the IC50 lay in the range of 0.001 to 0.01 µM.

For `NCCCC[C@H](NC(=O)[C@H]1CCCN(C(=O)CCc2ccccc2)C1)C(=O)c1nc2ccccc2s1` [Compound 3, (3S)—N-[(1S)-5-amino-1-(1,3-benzothiazole-2-carbonyl)pentyl]-1-(3-phenylpropanoyl)piperidine-3-carboxamide], the IC50 lay in the range of 0.01 to 0.025 µM.

Turning to `CC(=O)N1CCOC(C(=O)N[C@@H](CCCCN)C(=O)c2nc3ccccc3s2)C1` (stereo partly drawn) [Compound 29, 4-acetyl-N-[(1S)-5-amino-1-(1,3-benzothiazole-2-carbonyl)pentyl]morpholine-2-carboxamide], the IC50 fell in the range of 0.01 to 0.025 µM.

`NCCCCC(NC(=O)[C@@H]1CCCN(C(=O)CCc2ccccc2)C1)C(=O)c1nc2ccccc2s1` (single isomer, unassigned) [Compound 14]: the IC50 fell in the range of 0.001 to 0.01 µM.

On to `NCCCC[C@H](NC(=O)c1cncs1)C(=O)c1nc2ccccc2s1` [Compound 38, N-[(1S)-5-amino-1-(1,3-benzothiazole-2-carbonyl)pentyl]thiazole-5-carboxamide], for which the IC50 lay in the range of 0.01 to 0.025 µM.

In the case of `CC(=O)N1CCC[C@H](C(=O)N[C@H](CCCCN)C(=O)c2nc3ccccc3s2)C1` [Compound 10, (3S)-1-acetyl-N-[(1R)-5-amino-1-(1,3-benzothiazole-2-carbonyl)pentyl] piperidine-3-carboxamide], the IC50 fell in the range of 0.01 to 0.025 µM.

On to `NCCCC[C@H](NC(=O)OCc1ccccc1)C(=O)c1nc2ccccc2s1` [Compound 23, Benzyl-N-[(1S)-5-amino-1-(1,3-benzothiazole-2-carbonyl)pentyl]carbamate], for which the IC50 lay within 0.1 to 0.25 µM.

For `NCCCC[C@H](NC(=O)C1CCCOC1)C(=O)c1nc2ccccc2s1` (single isomer, unassigned) [Compound 19], the IC50 lay in the range of 0.01 to 0.025 µM.

For the compound `NCCCC[C@H](NC(=O)c1ccccc1C(F)(F)F)C(=O)c1nc2ccccc2s1` [Compound 7, N-[(1S)-5-amino-1-(1,3-benzothiazole-2-carbonyl)pentyl]-2-(trifluoromethyl)benzamide], the IC50 fell in the range of 0.025 to 0.05 µM.

On to `NCCCC[C@H](NC(=O)[C@@H]1CCCN(C(=O)CCc2ccccc2)C1)C(=O)c1nc2ccccc2s1` [Compound 4, (3R)—N-[(1S)-5-amino-1-(1,3-benzothiazole-2-carbonyl)pentyl]-1-(3-phenylpropanoyl)piperidine-3-carboxamide], for which the IC50 was 0.001 to 0.01 µM.

Consider `NCCCC[C@H](NC(=O)C1CCCC1)C(=O)c1nccs1` [Compound 42, N-[(1S)-5-amino-1-(thiazole-2-carbonyl)pentyl]cyclopentanecarboxamide], for which the IC50 is 0.05 to 0.1 µM.

Consider `CC1(C(=O)N[C@@H](CCCCN)C(=O)c2nc3ccccc3s2)CCCCC1` [Compound 33, N-[(1S)-5-amino-1-(1,3-benzothiazole-2-carbonyl)pentyl]-1-methyl-cyclohexanecarboxamide], for which the IC50 was 0.001 to 0.01 µM.

For the compound `NCCCC[C@H](NC(=O)C1CCCC1)C(=O)c1nc2ccccc2s1` [Compound 24, N-[(1S)-5-amino-1-(1,3-benzothiazole-2-carbonyl)pentyl]cyclo-pentanecarboxamide], the IC50 was in the range of 0.001 to 0.01 µM.

Turning to `NCCCC[C@H](NC(=O)C1CCOCC1)C(=O)c1nc2ccccc2s1` [Compound 22, N-[(1S)-5-amino-1-(1,3-benzothiazole-2-carbonyl)pentyl]tetrahydropyran-4-carboxamide], the IC50 is 0.01 to 0.025 µM.

In the case of `NCCCCC(NC(=O)[C@@H]1CCCN(C(=O)CCc2ccccc2)C1)C(=O)c1nc2ccccc2s1` (single isomer, unassigned) [Compound 15], the IC50 lay within 0.001 to 0.01 µM.

For `NCCCC[C@H](NC(=O)C1CCc2ccccc2C1)C(=O)c1nc2ccccc2s1` (stereo partly drawn) [Compound 32, N-[(1S)-5-amino-1-(1,3-benzothiazole-2-carbonyl)pentyl]tetralin-2-carboxamide], the IC50 is 0.001 to 0.01 µM.

Turning to `NCCCC[C@H](NC(=O)c1cccnc1)C(=O)c1nc2ccccc2s1` [Compound 30, N-[(1S)-5-amino-1-(1,3-benzothiazole-2-carbonyl)pentyl]pyridine-3-carboxamide], the IC50 fell in the range of 0.025 to 0.05 µM.

In the case of `CC(=O)N1CCC[C@@H](C(=O)N[C@H](CCCCN)C(=O)c2nc3ccccc3s2)C1` [Compound 11, (3R)-1-acetyl-N-[(1R)-5-amino-1-(1,3-benzothiazole-2-carbonyl)pentyl]piperidine-3-carboxamide], the IC50 lay within 0.001 to 0.01 µM.

In the case of `NCCCC[C@H](NC(=O)C1CCCO1)C(=O)c1nc2ccccc2s1` (single isomer, unassigned) [Compound 35], the half-inhibitory concentration (IC50) fell in the range of 0.001 to 0.01 µM.

Consider `NCCCC[C@H](NC(=O)c1ccncc1)C(=O)c1nc2ccccc2s1` [Compound 13, N-[(1S)-5-amino-1-(1,3-benzothiazole-2-carbonyl)pentyl]pyridine-4-carboxamide], for which the IC50 lay in the range of 0.025 to 0.05 µM.

Consider `NCCCC[C@H](NC(=O)C1CCCO1)C(=O)c1nc2ccccc2s1` (single isomer, unassigned) [Compound 34], for which the IC50 was in the range of 0.001 to 0.01 µM.

With `NCCCC[C@H](NC(=O)C1CCCCO1)C(=O)c1nc2ccccc2s1` (single isomer, unassigned) [Compound 25], the IC50 lay in the range of 0.025 to 0.05 µM.

As for `CC(=O)N1CCC[C@H](C(=O)N[C@@H](CCCCN)C(=O)c2nc3ccccc3s2)C1` [Compound 8, (3S)-1-acetyl-N-[(1S)-5-amino-1-(1,3-benzothiazole-2-carbonyl)pentyl] piperidine-3-carboxamide], the IC50 fell in the range of 0.01 to 0.025 µM.

Consider `NCCCC[C@H](NC(=O)C1CCCc2ccccc21)C(=O)c1nc2ccccc2s1` (stereo partly drawn) [Compound 31, N-[(1S)-5-amino-1-(1,3-benzothiazole-2-carbonyl)pentyl]tetralin-1-carboxamide], for which the IC50 was 0.01 to 0.025 µM.

Consider `NCCCC[C@H](NC(=O)c1cccc(=O)[nH]1)C(=O)c1nc2ccccc2s1` [Compound 40, N-[(1S)-5-amino-1-(1,3-benzothiazole-2-carbonyl)pentyl]-6-oxo-1H-pyridine-2-carboxamide], for which the IC50 was 0.025 to 0.05 µM.

For the compound `NCCCC[C@H](NC(=O)C1CCCC1)C(=O)c1ccccn1` [Compound 44, N-[(1S)-5-amino-1-(pyridine-2-carbonyl)pentyl]cyclopentanecarboxamide], the IC50 was greater than 0.25 µM.

As for `NCCCC[C@H](NC(=O)c1ccccn1)C(=O)c1nc2ccccc2s1` [Compound 12, N-[(1S)-5-amino-1-(1,3-benzothiazole-2-carbonyl)pentyl]pyridine-2-carboxamide], the IC50 is 0.05 to 0.1 µM.

Take `COC1(C(=O)N[C@@H](CCCCN)C(=O)c2nc3ccccc3s2)CCCCC1` [Compound 41, (S)—N-(6-amino-1-(benzo[d]thiazol-2-yl)-1-oxohexan-2-yl)-1-methoxycyclohexanecarboxamide]: the half-inhibitory concentration (IC50) lay in the range of 0.01 to 0.025 µM.

Still in this test, the particulars now being: read-out: Kgp IC50.
As to `NCCCC[C@H](NC(=O)[C@H]1CCCN(C(=O)CCc2ccccc2)C1)C(=O)c1nc2ccccc2s1` [Compound 3, (3S)—N-[(1S)-5-amino-1-(1,3-benzothiazole-2-carbonyl)pentyl]-1-(3-phenylpropanoyl)piperidine-3-carboxamide], the IC50 was in the range of 0.01 to 0.025 µM.

Regarding `NCCCC[C@H](NC(=O)[C@@H]1CCCN(C(=O)CCc2ccccc2)C1)C(=O)c1nc2ccccc2s1` [Compound 4, (3R)—N-[(1S)-5-amino-1-(1,3-benzothiazole-2-carbonyl)pentyl]-1-(3-phenylpropanoyl)piperidine-3-carboxamide], the IC50 fell in the range of 0.001 to 0.01 µM.

The test system of a further test is differentiated SHSY-5Y cells. The test can be described thus: Gingipain-induced death of differentiated SH-SY5Y cells. The test is classed as cell-based. The conditions noted are these: 100 nM Kgp and/or RgpB for 24 hours. The method, then:
SH-SY5Y neuroblastoma cells were cultured and differentiated in the presence of 5 uM retinoic acid based on established methods [Saberi S., et al. Cell Mol Neurobiol 2013. 33: 747-751]. Differentiation into neuronal cells was verified by observation of neurite outgrowth. The differentiated cells were exposed to 100 nM Kgp and/or RgpB for 24 hours, in the presence or absence of Kgp inhibitors. Results were recorded using a digital microscope camera (FIG. 1C, FIG. 2C). Gingipains are toxic to cells while COR compounds prevent the cytotoxicity.
In the case of `NCCCC[C@H](NC(=O)[C@H]1CCCN(C(=O)CCc2ccccc2)C1)C(=O)c1nc2ccccc2s1` [Compound 3, (3S)—N-[(1S)-5-amino-1-(1,3-benzothiazole-2-carbonyl)pentyl]-1-(3-phenylpropanoyl)piperidine-3-carboxamide], the “prevention of gingipain-induced death of differentiated SHSY-5Y cells” value (“prevention … of differentiated SHSY-5Y cells” for short) is “does not”.

`NCCCC[C@H](NC(=O)c1ccccc1)C(=O)c1nc2ccccc2s1` [Compound 1, N-[(1S)-5-amino-1-(1,3-benzothiazole-2-carbonyl)pentyl]benzamide]: the “prevention … of differentiated SHSY-5Y cells” value is given as “prevents; also recorded: effective at preventing cell death”.

On to `NCCCC[C@H](NC(=O)[C@@H]1CCCN(C(=O)CCc2ccccc2)C1)C(=O)c1nc2ccccc2s1` [Compound 4, (3R)—N-[(1S)-5-amino-1-(1,3-benzothiazole-2-carbonyl)pentyl]-1-(3-phenylpropanoyl)piperidine-3-carboxamide], for which the “prevention … of differentiated SHSY-5Y cells” value was “prevents”.

Staying with this test, now noted: 100 nM Kgp and/or RgpB for 24 hours; listed as 2-(N—[N-(3-phenylpropanoyl)-(R)-nipecotinyl]-(R)-lysinyl)-benzothiazole.
On to `NCCCC[C@H](NC(=O)[C@@H]1CCCN(C(=O)CCc2ccccc2)C1)C(=O)c1nc2ccccc2s1` [Compound 4, (3R)—N-[(1S)-5-amino-1-(1,3-benzothiazole-2-carbonyl)pentyl]-1-(3-phenylpropanoyl)piperidine-3-carboxamide], for which the “prevention … of differentiated SHSY-5Y cells” value is listed as “effective at preventing cell death”.
